Data: PubChem BioAssay AID1996
≈ marks a conversion by molar mass, not a printed value.

Conditions: buffer; pH 7.4; 200.0 µM

**Q.** Which solubility kinetic does the source give for Cc1cc(C)c2[nH]c(C(=O)Nc3ccc4c(c3)OCO4)cc2c1 here?
**A.** 2.2 µg/mL (≈ 7.14 µM)

**Q.** Which solubility kinetic does the source give for CC(C(=O)Nc1ccc(S(=O)(=O)N2CCCC2)cc1)N(C)CC(=O)Nc1cccc(F)c1 (stereo not given) here?
**A.** 28.7 µg/mL (≈ 62 µM)

**Q.** For Cc1nc(CNS(=O)(=O)c2ccc(F)cc2)cs1, which solubility kinetic is on record?
**A.** > 43 µg/mL

**Q.** For Cc1cccc(NC(=O)NNC(=O)c2ccccn2)c1, which solubility kinetic is on record?
**A.** > 40.5 µg/mL

**Q.** For C=CCNC(=O)COC(=O)COc1ccc(Cl)cc1, which solubility kinetic is on record?
**A.** > 42.6 µg/mL

**Q.** With Cc1nc2ccc(NC(=O)c3ccco3)cc2nc1C as the compound, how does the solubility kinetic read?
**A.** > 40.1 µg/mL

**Q.** Which solubility kinetic does the source give for CC1CCCCN1CCCNc1c(C=O)c(=O)[nH]c2ccccc12 (stereo not given) here?
**A.** 46.7 µg/mL (≈ 143 µM)

**Q.** With CN1CCCN(C(=O)c2c(F)cccc2Cl)CC1 as the compound, how does the solubility kinetic read?
**A.** > 40.6 µg/mL

**Q.** With CC(C)CC(=O)Nc1ccc(C(=O)CN2CCC(C)CC2)cc1 as the compound, how does the solubility kinetic read?
**A.** 39.4 µg/mL (≈ 125 µM)

**Q.** With COc1ccc(NC(=O)C2CCCO2)c(OC)c1 (stereo not given) as the compound, how does the solubility kinetic read?
**A.** 33.9 µg/mL (≈ 135 µM)

**Q.** Which solubility kinetic does the source give for Cc1noc(C)c1COC(=O)[C@@H](NC(=O)c1ccccc1)C(C)C here?
**A.** > 49.6 µg/mL

**Q.** For CCN1CCCC1CNC(=S)Nc1ccc(C(C)=O)cc1 (stereo not given), which solubility kinetic is on record?
**A.** > 45.8 µg/mL

**Q.** With O=c1c2ccccc2cnn1Cc1n[nH]c(=S)n1-c1ccccc1F as the compound, how does the solubility kinetic read?
**A.** > 53 µg/mL

**Q.** For c1ccc(OCc2noc(CN3CC[C@@H]4CCCC[C@H]4C3)n2)cc1, which solubility kinetic is on record?
**A.** 6 µg/mL (≈ 18.3 µM)

**Q.** With NC(=O)C1CCN(c2ncccc2[N+](=O)[O-])CC1 as the compound, how does the solubility kinetic read?
**A.** > 37.5 µg/mL

**Q.** With Cc1ccc(NC(=O)COC(=O)c2ccc[n+]([O-])c2)c(Br)c1 as the compound, how does the solubility kinetic read?
**A.** > 54.8 µg/mL

**Q.** Which solubility kinetic does the source give for O=S(=O)(c1ccc(Cl)cc1)N1CCCCC1c1cccnc1 (stereo not given) here?
**A.** 47.7 µg/mL (≈ 142 µM)

**Q.** With O=C(OCc1ccc([N+](=O)[O-])cc1)c1cc2ccccc2oc1=O as the compound, how does the solubility kinetic read?
**A.** < 0.7 µg/mL

**Q.** With CC(=O)Nc1ccc(C(=O)/C=C/c2ccc[nH]2)cc1 as the compound, how does the solubility kinetic read?
**A.** 2.9 µg/mL (≈ 11.4 µM)

**Q.** For N#CC(C#N)=C1C(=O)N(CCN2CCOCC2)c2ccccc21, which solubility kinetic is on record?
**A.** > 46.3 µg/mL

**Q.** For CC(C)S(=O)(=O)c1csc(C(=O)Nc2ccc(F)cc2)c1N, which solubility kinetic is on record?
**A.** 13.6 µg/mL (≈ 39.7 µM)

**Q.** Which solubility kinetic does the source give for CCc1ccccc1N1CC(C(=O)Nc2cc(C)on2)CC1=O (stereo not given) here?
**A.** > 47 µg/mL

**Q.** For CC(=O)Nc1nc(-c2ccc3c(c2)OCO3)cs1, which solubility kinetic is on record?
**A.** 8.5 µg/mL (≈ 32.4 µM)

**Q.** Which solubility kinetic does the source give for O=C(CN1CCN(C(=O)c2ccc(OCc3cn4ccccc4n3)cc2)CC1)Nc1cccc(F)c1 here?
**A.** 8.6 µg/mL (≈ 17.6 µM)

**Q.** With O=C(Cc1c(Cl)cccc1Cl)Nc1ccncc1Cl as the compound, how does the solubility kinetic read?
**A.** 6.1 µg/mL (≈ 19.3 µM)

**Q.** With O=C(NCC1CC1(Cl)Cl)Nc1ccc(Cl)c(Cl)c1 (stereo not given) as the compound, how does the solubility kinetic read?
**A.** 9.1 µg/mL (≈ 27.7 µM)

**Q.** With COc1cccc(NC(=O)COC(=O)c2c(C)noc2C)c1 as the compound, how does the solubility kinetic read?
**A.** > 45.6 µg/mL

**Q.** For COc1ccc(CCNCC2CCCO2)cc1.Cl (stereo not given), which solubility kinetic is on record?
**A.** 35.2 µg/mL

**Q.** With COc1ccc(-c2cc(C(F)(F)F)c(C#N)c(SCC(=O)O)n2)cc1 as the compound, how does the solubility kinetic read?
**A.** 53.6 µg/mL (≈ 146 µM)

**Q.** With CN1CCN(c2ccc(NC(=O)c3ccccc3)cc2)CC1 as the compound, how does the solubility kinetic read?
**A.** > 44.3 µg/mL

**Q.** Which solubility kinetic does the source give for CCN(CC)CCN(C(=O)/C=C/c1cccs1)c1nc2ccc(C)cc2s1.Cl here?
**A.** 0.6 µg/mL

**Q.** With COc1cccc(C(=O)NC2CC(C)(C)NC(C)(C)C2)c1OC as the compound, how does the solubility kinetic read?
**A.** > 48.1 µg/mL

**Q.** For Cc1ccc2cc3cc(C(=O)NC4CC4)oc3nc2c1, which solubility kinetic is on record?
**A.** 1.3 µg/mL (≈ 4.88 µM)

**Q.** With O=S(=O)(c1ccc(Cl)nc1)N1CCc2ccccc21 as the compound, how does the solubility kinetic read?
**A.** 24.9 µg/mL (≈ 84.5 µM)

**Q.** With O=C(c1ccc([N+](=O)[O-])cc1)c1cc2ccc(O)cc2oc1=O as the compound, how does the solubility kinetic read?
**A.** 2 µg/mL (≈ 6.43 µM)

**Q.** For CN(C)c1cc[n+](CC(=O)c2ccc(Br)cc2)cc1.[Cl-], which solubility kinetic is on record?
**A.** 52.8 µg/mL

**Q.** Which solubility kinetic does the source give for Cc1ccc(C(=O)Nc2ccc(S(=O)(=O)N3CCCC3)cc2)s1 here?
**A.** 7.2 µg/mL (≈ 20.5 µM)

**Q.** With O=C(COC(=O)Cc1c(Cl)cccc1Cl)NC1CCCC1 as the compound, how does the solubility kinetic read?
**A.** > 49.5 µg/mL

**Q.** Which solubility kinetic does the source give for Cc1ccc(CN2CCC(N3CC(C)OC(C)C3)CC2)cc1.Cl (stereo not given) here?
**A.** 31.8 µg/mL

**Q.** With COc1ccccc1NC(=S)NC(=O)Cc1ccccc1 as the compound, how does the solubility kinetic read?
**A.** 0.5 µg/mL (≈ 1.66 µM)

**Q.** Which solubility kinetic does the source give for CCc1c(C)sc(NC(=O)/C=C/C(=O)O)c1C(N)=O here?
**A.** > 42.3 µg/mL

**Q.** With CCC(=O)N/C(N)=N/c1nc2ccccc2o1 as the compound, how does the solubility kinetic read?
**A.** 14.8 µg/mL (≈ 63.7 µM)

**Q.** Which solubility kinetic does the source give for N#CCCN(C(=O)COC(=O)c1cc(=O)[nH]c2ccccc12)c1ccccc1 here?
**A.** > 56.3 µg/mL

**Q.** With Nc1sc2c(c1C(=O)NC1CC1)CCCC2 as the compound, how does the solubility kinetic read?
**A.** 31 µg/mL (≈ 131 µM)

**Q.** With COc1ccccc1NS(=O)(=O)c1cc(NC(=O)c2ccccc2[N+](=O)[O-])ccc1N1CCOCC1 as the compound, how does the solubility kinetic read?
**A.** 4.4 µg/mL (≈ 8.58 µM)

**Q.** Which solubility kinetic does the source give for Cc1nc(CC(=O)Nc2nccs2)cs1 here?
**A.** > 35.9 µg/mL

**Q.** With Cc1ccc(NC(=O)N2CCCCCC2)cc1 as the compound, how does the solubility kinetic read?
**A.** > 34.8 µg/mL

**Q.** For COc1cccc(CNCc2ccccc2OC)c1.O=C(O)C(=O)O, which solubility kinetic is on record?
**A.** 28.9 µg/mL

**Q.** With CCN(C(=O)CN1C(=S)NC(C)(C)CC1C)c1ccc(C)c(C)c1 (stereo not given) as the compound, how does the solubility kinetic read?
**A.** > 52.1 µg/mL

**Q.** With O=C1NC(c2ccc(F)cc2)Oc2ccccc21 (stereo not given) as the compound, how does the solubility kinetic read?
**A.** 6.4 µg/mL (≈ 26.3 µM)

**Q.** Which solubility kinetic does the source give for O=C(O)CCCC(=O)Nc1ccc(Oc2ncnc3cc(Cl)ccc23)nc1 here?
**A.** > 58 µg/mL

**Q.** Which solubility kinetic does the source give for Cc1ccccc1NC(=O)c1c(C)cc(=O)oc1C here?
**A.** > 38.6 µg/mL

**Q.** Which solubility kinetic does the source give for O=C1CCCC2=C1C(c1ccsc1)CC(=O)N2c1ccccc1F (stereo not given) here?
**A.** > 51.2 µg/mL

**Q.** With Cc1ccc(NCC(=O)N/N=C/c2ccncc2)cc1 as the compound, how does the solubility kinetic read?
**A.** > 40.2 µg/mL

**Q.** For O=C(C1CC(=O)N(c2ccc(F)cc2)C1)N1CCCCC1 (stereo not given), which solubility kinetic is on record?
**A.** 39 µg/mL (≈ 134 µM)

**Q.** With CNc1nc(-c2c(C)n(C)c3ccc(OC)cc23)cs1 as the compound, how does the solubility kinetic read?
**A.** 23.9 µg/mL (≈ 83.2 µM)

**Q.** With C=C1C(C(=O)Nc2ccc(OC)cc2)C1C(=O)Nc1ccc(OC)cc1 (stereo not given) as the compound, how does the solubility kinetic read?
**A.** 0.6 µg/mL (≈ 1.7 µM)

**Q.** With CCc1ccc(C(=O)CSc2nc(N)cc(=O)[nH]2)cc1 as the compound, how does the solubility kinetic read?
**A.** 14.2 µg/mL (≈ 49.1 µM)

**Q.** Which solubility kinetic does the source give for COC(=O)c1sccc1NC(=S)N(C)C1CCCCC1 here?
**A.** 0.4 µg/mL (≈ 1.28 µM)

**Q.** With COc1ccc(O)c(C2=Nc3ccccc3N=C(c3ccccc3)C2)c1 as the compound, how does the solubility kinetic read?
**A.** < 0.4 µg/mL

**Q.** Which solubility kinetic does the source give for Cl.c1ccc(C2NCCc3ccccc32)cc1 (stereo not given) here?
**A.** > 36.9 µg/mL

**Q.** Which solubility kinetic does the source give for Cc1oc2c(CN3CCCC(C)C3)c(O)ccc2c(=O)c1-c1ccccc1 (stereo not given) here?
**A.** > 54.5 µg/mL

**Q.** Which solubility kinetic does the source give for CC1CCCCN1C(=O)CCn1c(=O)oc2ccccc21 (stereo not given) here?
**A.** > 43.3 µg/mL

**Q.** For O=C(CCNS(=O)(=O)c1ccccc1)N1CCCCCC1, which solubility kinetic is on record?
**A.** > 46.6 µg/mL

**Q.** Which solubility kinetic does the source give for Cn1c(N2CCOCC2)cc(=O)n(C)c1=O here?
**A.** 29.3 µg/mL (≈ 130 µM)

**Q.** With CN(C)C(=O)Oc1ccnc2cc(Cl)ccc12 as the compound, how does the solubility kinetic read?
**A.** > 37.6 µg/mL

**Q.** With COc1ccc(NC(=O)CO/N=C2/CCCc3nonc32)c(OC)c1 as the compound, how does the solubility kinetic read?
**A.** > 52 µg/mL

**Q.** For CCOC(=O)C1(CCOC)CCN(C(=O)c2sccc2C)CC1, which solubility kinetic is on record?
**A.** > 50.9 µg/mL

**Q.** For CN1CC(C(=O)c2ccccc2)C(c2ccccc2)C1 (stereo not given), which solubility kinetic is on record?
**A.** > 39.8 µg/mL

**Q.** For CCC1(C)NC(=O)N(CC(=O)Nc2cc(C)on2)C1=O (stereo not given), which solubility kinetic is on record?
**A.** > 42 µg/mL

**Q.** With CC(=O)c1cccc(NC(=O)COC(=O)c2ccccc2C)c1 as the compound, how does the solubility kinetic read?
**A.** 4.9 µg/mL (≈ 15.7 µM)

**Q.** For COC(=O)c1csc(S(=O)(=O)N2CCOCC2)c1OC, which solubility kinetic is on record?
**A.** > 48.2 µg/mL

**Q.** Which solubility kinetic does the source give for CCOc1ccc(S(=O)(=O)N(C)C2CCCCC2)cc1 here?
**A.** 18.1 µg/mL (≈ 60.9 µM)

**Q.** For CCc1ccccc1OCC(=O)Nc1ccc2c(c1)OCCO2, which solubility kinetic is on record?
**A.** 15.9 µg/mL (≈ 50.7 µM)

**Q.** For Cc1onc(-c2c(Cl)cccc2Cl)c1NC(=O)NC1CCSC1 (stereo not given), which solubility kinetic is on record?
**A.** > 55.8 µg/mL

**Q.** For COc1ccc2c(c1)c(C)cc[n+]2Cc1ccccc1.[Cl-], which solubility kinetic is on record?
**A.** 31.9 µg/mL

**Q.** For Cc1c(O)ccc(C(=O)CN2CC(C)OC(C)C2)c1O (stereo not given), which solubility kinetic is on record?
**A.** > 41.9 µg/mL

**Q.** Which solubility kinetic does the source give for CC1CCc2c(sc(/N=C/c3cccnc3)c2C(N)=O)C1 (stereo not given) here?
**A.** 26.8 µg/mL (≈ 89.5 µM)

**Q.** Which solubility kinetic does the source give for COC(=O)c1nc(N)sc1C(C)C here?
**A.** > 30 µg/mL

**Q.** Which solubility kinetic does the source give for O=C(Nc1sc2c(c1C(=O)O)CCC2)c1cccc(Cl)c1 here?
**A.** > 48.3 µg/mL

**Q.** With Cc1cc(C)nc(SCC(N)=O)n1 as the compound, how does the solubility kinetic read?
**A.** 28.5 µg/mL (≈ 144 µM)

**Q.** With CN(C)CCNC(=O)Nc1ccc([N+](=O)[O-])cc1 as the compound, how does the solubility kinetic read?
**A.** > 37.8 µg/mL

**Q.** Which solubility kinetic does the source give for CC(C)[C@H](NC(=O)c1ccccc1F)C(=O)OCC(=O)Nc1sccc1C(N)=O here?
**A.** > 63.2 µg/mL

**Q.** For CCOC(=O)C1CCN(C(=O)CC2(CC(=O)O)CCCC2)CC1, which solubility kinetic is on record?
**A.** 45.5 µg/mL (≈ 140 µM)

**Q.** For CCN(c1ccccc1)S(=O)(=O)c1ccc(C(=O)N2CCOCC2)cc1, which solubility kinetic is on record?
**A.** > 56.2 µg/mL
